Literature values as cited in patent US20120093882A1 (priority 2009, published 2012).

Columns and labels:
[1] = after oral administration
[2] = dissolved in ultra-pure water, natural midsummer sunlight, maximum of 145 h

- absorption [1]: almost completely absorbed
- hepatic first-pass metabolism [1]: 50%
- degradation on exposure to sunlight [2]: Fast degradation
Compound: O=C(O)Cc1ccccc1Nc1c(Cl)cccc1Cl [Diclofenac]
